# Measurements published in patent US20200038486A1, “THERAPEUTIC MEDICINE FOR FIBROUS DISEASE” (StemRIM Inc., priority 2017, published 2020).
# Where no end group is shown, it is not given here.
# System: 129SV/colVII homo mice (epidermolysis bullosa model mice)
# Experiment: Forelimb finger adhesion in epidermolysis bullosa model mice
# Assay type: in vivo
# Conditions: from the start of treatment to Week 8
sequence,measurement,value
MGKGDPKKPRGKMSSYAFFVQTCREEHKKKHPDASVNFSEFSKK [HMGB1 peptide (1-44)],body weight compared with the vehicle group,no significant difference between the groups
